Experimental data taken from paper PMC9959501, “Critical Analysis and Optimization of Stoichiometric Ratio of Drug-Coformer on Cocrystal Design: Molecular Docking, In Vitro and In Vivo Assessment” (Pharmaceuticals, 2023).
Values after ≈ are worked out from the molar mass of the structure shown.

Assays:
[1] = Equilibrium solubility analysis; format: physicochemical; conditions: distilled water, 25 °C, stirred 24 h; mean ± SD, n = 3
Method: Improvement in solubility may due to the formation of hydrogen bonds between the imidazole rings of telmisartan and polar carboxylate hydrogens of maleic acid in presence of solvents.
The solubility analysis of telmisartan and prepared telmisartan-maleic acid cocrystals were assessed by placing an excessive amount of sample in 50 mL of distilled water at 25 °C. Then it was stirred for 24 h using a magnetic stirrer to ensure that the solution must reach equilibrium, and then sonicated (Imeco Sonifier, Imeco Ultrasonics, Pune, India) for 15 min. Then the solution was filtered and subjected to spectrophotometric analysis at 296 nm, using a UV-visible spectrophotometer (UV-1800 Shimadzu, Kyoto, Japan).

[2] = In vitro dissolution study (USP apparatus II); format: physicochemical; conditions: phosphate buffer pH 7.5, 100 rpm, 37 ± 0.5 °C
Method: The dissolution study was performed in a phosphate buffer (pH 7.5) using a USP dissolution rate test apparatus II (LAB INDIA, DS 8000, Thane, India) at 100 rpm and 37 ± 0.5 °C (Figure 7). […] The enhancement in dissolution may be due to the formation of hydrogen bonds between telmisartan and maleic acid in presence of solvents. The computational simulation approach already predicted this finding. Another reason for the enhancement of dissolution may be a reduction in crystal size, solubilization effect of the carrier as well as improved wettability of the drug in presence of solvents.
A USP dissolution rate test apparatus II (LAB INDIA, DS 8000, India) was used to perform the dissolution studies of pure telmisartan and prepared multicomponent solid form (telmisartan cocrystals) in phosphate buffer medium (pH 7.5) at 37 ± 0.5 °C. An accurately weighed amount of sample was placed in a 900 mL dissolution medium and stirred at 100 rpm. At each specific time interval, a 5 mL sample was withdrawn and replaced by an equal volume of fresh pre-warmed phosphate buffer (pH 7.5) to maintain the sink condition throughout the experiment. The samples were filtered through Whatman filter paper (0.45 µm) and analyzed at 296 nm using a UV-visible spectrophotometer (UV-1800 Shimadzu, Japan). The dissolution studies were conducted in triplicate.

[3] = Pharmacokinetic study in rats; format: in vivo; conditions: male, Wistar, po, 1 mg/kg telmisartan equivalent in 0.5% w/v sodium carboxymethylcellulose, mean ± SD, n = 6
Method: In vivo study protocol was approved by the Institutional Animal Ethical Committee, Dr. B. C. Roy College of Pharmacy & AHS., Durgapur, West Bengal, India (Approval No: BCRCP/IAEC/8/2019). The pharmacokinetic study was performed using male Wistar rats (180–200 g). The animals were allowed to be acclimatized for a period of 1 week in our laboratory environment prior to the experiment and had free access to water and food.
The animals were divided into two groups. Group 1 (6 animals) received pure telmisartan (1 mg/kg) with 0.5% w/v sodium carboxymethylcellulose, and Group 2 (6 animals) received optimized cocrystals (equivalent to 1 mg/kg pure telmisartan) with 0.5% w/v sodium carboxymethylcellulose. Blood samples were collected at predetermined time intervals from the retro-orbital venous plexus of the rats and centrifuged for 5 min at 10,000 rpm. The plasma was separated and drug analysis was carried out by RP-HPLC method using the software ‘Class-Vp series version 5.03 (Shimadzu)’. The in vivo pharmacokinetic parameters such as peak plasma concentration (Cmax), total area under the plasma concentration-time curve (AUC0–∞), elimination rate constant (KE), and relative bioavailability (%) were calculated by using Kinetica software (version 4.4.1; Thermo Fisher Scientific, Waltham, MA, USA).

[4] = Crystallite size from PXRD data (Scherrer's formula); format: physicochemical
Method: An XRD study was performed to assess the physico-chemical state of telmisartan in prepared telmisartan-maleic acid cocrystals. The XRD study was performed by X-Ray Diffractometer (X’Pert Pro, Panalytical, Almelo, The Netherlands) using monochromatized Cu Kα radiation (λ = 1.54 Å) at a voltage of 45 kV and a current of 40 mA. Measurements were carried out in the angular scan range from 5° to 50° (2θ) at a scan speed of 1°/min. This study also helps to determine the size of the formed crystallite using Scherrer’s formula. Crystallite size Dp=K λ/Bcosθ, where Dp is average crystallite size (nm), K is Scherrer constant, λ is X-ray wavelength, B is FWHM (Full Width at Half Maximum) of XRD peak, and θ is XRD peak position.

- solubility at 24 h [1]: 5.15 ± 1.16 µg/mL (≈ 10 µM)
- Percentage drug dissolved within 120 min [2]: 29.04 ± 2.06%
- k el ([3]; plasma, rat, read-out: KE (elimination rate constant) (converted)): 3e-05 s⁻¹
- AUC(0-inf) ([3]; rat plasma): 4180 ± 87.8 ng·h/mL
- Cmax ([3]; rat plasma): 945 ± 27.9 ng/mL
- Average crystallite size [4]: 893.51 ± 42.82 nm
SMILES: CCCc1nc2c(C)cc(-c3nc4ccccc4n3C)cc2n1Cc1ccc(-c2ccccc2C(=O)O)cc1 [PD, Telmisartan]
